Experiments:
[1] = tested on: primary human fibroblasts derived from IPF patients (LL29 cells) treated with TGF-β1; test: Inhibition of the fibrotic process: αSMA staining in TGF-β1 treated primary human fibroblasts from IPF patients (LL29 cells); assay type: cell-based; conditions: Fibroblast, 96 h, TGF-β1 20 ng/mL, 4 days; for EC50: % αSMA positive cells; for inhibition at 10 µM: given where EC50 >10 μM, read-out: percent inhibition at 10 μM
How it was run: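 LL29 cells plated in F12 with 1% FBS, compounds added as 11-point 1:2 series (10 μM to 1.87 nM, 0.1% DMSO), then TGF-β1 20 ng/mL; 4 days at 37 °C. Fixed, αSMA immunostained, imaged; SYTOX-positive cells excluded. % αSMA-positive cells normalized to TGF-β1 wells; EC50 by non-linear regression, or % inhibition at 10 μM.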

[2] = tested on: Wnt activity (Sp5-Luc reporter, SW480 colon carcinoma cells); test: Wnt activity screening assay: Sp5-Luc reporter gene in SW480 colon carcinoma cells; assay type: cell-based; conditions: Homo sapiens; for EC50: overnight incubation, 10-point curve from 10 μM
How it was run: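 SW480 cells stably transduced with an Sp5 promoter (eight TCF/LEF sites)–firefly luciferase lentiviral reporter, plated at 4,000 cells/well in 1% FBS medium with compounds (10-point 1:3 series from 10 μM, 0.1% DMSO) overnight at 37 °C. BrightGlo luminescence normalised to DMSO; EC50 by four-parameter fit, else % inhibition at 10 μM.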

CN(C)CCNc1cc(F)cc(-c2cccc3[nH]c(-c4n[nH]c5ccc(-c6ccccn6)nc45)cc23)c1 [Compound 476, N^1-(3-Fluoro-5-(2-(5-(pyridin-2-yl)-1H-pyrazolo[4,3-b]pyridin-3-yl)-1H-indol-4-yl)phenyl)-N^2,N^2-dimethylethane-1,2-diamine]
EC50 [1]: 2120 nM | EC50 [2]: 4620 nM

Cc1ccncc1-c1ccc2[nH]nc(-c3cc4c(-c5cc(F)cc(CNS(C)(=O)=O)c5)cccc4[nH]3)c2n1 [Compound 481, N-(3-Fluoro-5-(2-(5-(4-methylpyridin-3-yl)-1H-pyrazolo[4,3-b]pyridin-3-yl)-1H-indol-4-yl)benzyl)methanesulfonamide]
EC50 [1]: 78 nM | EC50 [2]: 162 nM

Nc1cncc(-c2ccc3[nH]nc(-c4cc5ncccc5[nH]4)c3n2)c1 [Compound 507, 5-(3-(1H-Pyrrolo[3,2-b]pyridin-2-yl)-1H-pyrazolo[4,3-b]pyridin-5-yl) pyridin-3-amine]
EC50 [1]: > 10000 nM | inhibition at 10 µM [1]: 24.5% | EC50 [2]: 256 nM

Fc1cccc(-c2cccc3[nH]c(-c4n[nH]c5ccc(-c6cncc(OCc7ccccc7)c6)nc45)cc23)c1 [Compound 546, 5-(5-(Benzyloxy)pyridin-3-yl)-3-(4-(3-fluorophenyl)-1H-indol-2-yl)-1H-pyrazolo[4,3-b]pyridine]
EC50 [1]: 1440 nM | EC50 [2]: 2660 nM

c1cc(-c2ccncc2)c2cc(-c3n[nH]c4ccc(-c5cncc(OCCN6CCCC6)c5)nc34)[nH]c2c1 [Compound 606, 3-(4-(Pyridin-4-yl)-1H-indol-2-yl)-5-(5-(2-(pyrrolidin-1-yl)ethoxy)pyridin-3-yl)-1H-pyrazolo[4,3-b]pyridine]
EC50 [1]: 1280 nM | EC50 [2]: 4990 nM

O=C(CC1CCNCC1)Nc1cncc(-c2ccc3[nH]nc(-c4cc5c(-c6ccccn6)cccc5[nH]4)c3n2)c1 [Compound 621, 2-(Piperidin-4-yl)-N-(5-(3-(4-(pyridin-2-yl)-1H-indol-2-yl)-1H-pyrazolo[4,3-b]pyridin-5-yl)pyridin-3-yl)acetamide]
EC50 [1]: 2120 nM | EC50 [2]: 1600 nM

c1cc(N2CCCCC2)c2cc(-c3n[nH]c4ccc(-c5cncc(OC6CCNCC6)c5)nc34)[nH]c2c1 [Compound 636, 3-(4-(Piperidin-1-yl)-1H-indol-2-yl)-5-(5-(piperidin-4-yloxy)pyridin-3-yl)-1H-pyrazolo[4,3-b]pyridine]
EC50 [1]: 3900 nM | EC50 [2]: 2390 nM

c1cc(-c2ccoc2)c2cc(-c3n[nH]c4ccc(-c5cn[nH]c5)nc34)[nH]c2c1 [Compound 711, 3-(4-(Furan-3-yl)-1H-indol-2-yl)-5-(1H-pyrazol-4-yl)-1H-pyrazolo[4,3-b] pyridine]
EC50 [1]: 8810 nM | EC50 [2]: 8160 nM

c1cc(-c2ccoc2)c2cc(-c3n[nH]c4ccc(-c5cncc(OC6CCCCC6)c5)nc34)[nH]c2c1 [Compound 715, 5-(5-(Cyclohexyloxy)pyridin-3-yl)-3-(4-(furan-3-yl)-1H-indol-2-yl)-1H-pyrazolo[4,3-b]pyridine]
EC50 [1]: 3940 nM | EC50 [2]: 6490 nM

Oc1cncc(-c2ccc3[nH]nc(-c4cc5c(-c6cccs6)cccc5[nH]4)c3n2)c1 [Compound 737, 5-(3-(4-(Thiophen-2-yl)-1H-indol-2-yl)-1H-pyrazolo[4,3-b]pyridin-5-yl) pyridin-3-ol]
EC50 [1]: 2030 nM | inhibition at 10 µM ([2]; given where EC50 >10 μM, 10 μM, read-out: percent inhibition at 10 μM): 3.3% | EC50 [2]: > 10000 nM

c1cnc2cc(-c3n[nH]c4ccc(-c5cn[nH]c5)nc34)[nH]c2c1 [Compound 1021, 5-(1H-Pyrazol-4-yl)-3-(1H-pyrrolo[3,2-b]pyridin-2-yl)-1H-pyrazolo[4,3-b] pyridine]
EC50 [1]: 1370 nM | EC50 [2]: 767 nM

Oc1cncc(-c2ccc3[nH]nc(-c4cc5ncccc5[nH]4)c3n2)c1 [Compound 1031, 5-(3-(1H-Pyrrolo[3,2-b]pyridin-2-yl)-1H-pyrazolo[4,3-b]pyridin-5-yl) pyridin-3-ol]
EC50 [1]: > 10000 nM | inhibition at 10 µM [1]: 18.4% | EC50 [2]: 883 nM
